Experimental data from patent US12421212B2, “Substituted benzenecarboxamides as IL-17A modulators” (DiCE Alpha, Inc., priority 2019, dated 2025).

Biological target: T1, IL-17A/A (Homo sapiens, UniProt Q16552)
T1 construct: purchased Genscript Z03228
T1 sequence (Q16552 24-155): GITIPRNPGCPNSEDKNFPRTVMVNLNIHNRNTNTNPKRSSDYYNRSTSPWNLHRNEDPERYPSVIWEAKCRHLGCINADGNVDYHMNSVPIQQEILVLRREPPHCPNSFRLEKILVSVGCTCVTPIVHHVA
Experiment: IL-17A/A HEK-Blue Cell Assay
Format: cell-based
Conditions: HEK-Blue IL-17A reporter cell line, SEAP readout at A630, 20 hours incubation with IL-17A/A; top concentration 10 uM, 1 uM or 0.3 uM

SMILES	IL-17A/A inhibition (pIC50)
CCC(=O)N[C@H](Cc1ccc(NC(=O)[C@@H](NC(=O)c2ccc(C(=O)NC)n2C)C2CCCCC2)c(F)c1)C(=O)N1CCN(C)CC1 [Compound 780]	X1b (compounds were evaluated up to 10 uM and inhibited activity at 10 uM by less than 20%)
CCC(=O)N[C@H](Cc1ccc(NC(=O)[C@@H](NC(=O)c2cnc(C(=O)NC)[nH]2)C2CCCCC2)c(F)c1)C(=O)N1CCN(C)CC1 [Compound 781]	X1b (compounds were evaluated up to 10 uM and inhibited activity at 10 uM by less than 20%)
CCC(=O)N[C@H](Cc1ccc(NC(=O)[C@@H](NC(=O)Cc2cccc(O)c2)C2CCCCC2)c(F)c1)C(=O)N1CCN(C)CC1 [Compound 782]	X1b (compounds were evaluated up to 10 uM and inhibited activity at 10 uM by less than 20%)
CCC(=O)N[C@H](Cc1ccc(NC(=O)[C@@H](NC(=O)c2cnc(C(=O)NCC(F)F)[nH]2)C2CCCCC2)c(F)c1)C(=O)N1CCN(C)CC1 [Compound 783]	X1b (compounds were evaluated up to 10 uM and inhibited activity at 10 uM by less than 20%)
